PubChem BioAssay AID180 (DTP/NCI, 2004)
Values joined by “and” are separate entries in the source; they are usually repeats but may differ in a detail not shown here. Equal entries are not always repeated.

System: BDF1 mice, Adenocarcinoma 755 s.c., tumor weight T/C
Test: NCI In Vivo Anticancer Drug Screen. Data for tumor model Adenocarcinoma 755 (subcutaneous) in B6D2F1 (BDF1) mice
Conditions: endpoint: mean tumor weight, higher = larger tumour
Summary of the method: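 Transplantable tumor implanted; mice dosed with compound or vehicle; survival or tumor size recorded; ratio of treated to vehicle control reported.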

[1] = dose: 25.0 mg/kg/injection, schedule: Q01DX011 (ip), vehicle: methylcellulose (MC)
[2] = dose: 50.0 mg/kg/injection, schedule: Q01DX011 (ip), vehicle: methylcellulose (MC)
[3] = dose: 100.0 mg/kg/injection, schedule: Q01DX011 (ip), vehicle: methylcellulose (MC)
[4] = dose: 2.0 mg/kg/injection, schedule: Q01DX011 (ip), vehicle: methylcellulose (MC)
[5] = dose: 7.0 mg/kg/injection, schedule: Q01DX011 (ip), vehicle: carboxymethylcellulose (CMC)
[6] = dose: 15.0 mg/kg/injection, schedule: Q01DX011 (ip), vehicle: methylcellulose (MC)
[7] = dose: 30.0 mg/kg/injection, schedule: Q01DX011 (ip), vehicle: carboxymethylcellulose (CMC)
[8] = dose: 28.0 mg/kg/injection, schedule: Q01DX011 (ip), vehicle: saline
[9] = dose: 56.0 mg/kg/injection, schedule: Q01DX011 (ip), vehicle: carboxymethylcellulose (CMC)
[10] = dose: 30.0 mg/kg/injection, schedule: Q01DX011 (ip), vehicle: methylcellulose (MC)

**Q.** For C1CN1c1nc(N2CC2)nc(N2CC2)n1, which T/C (dose: 0.03 mg/kg/injection, schedule: Q01DX011 (ip), vehicle: carboxymethylcellulose (CMC)) is on record?
**A.** Its T/C is 90 % of control.

**Q.** What about the T/C (dose: 0.05 mg/kg/injection, schedule: Q01DX011 (ip), vehicle: carboxymethylcellulose (CMC)) of the same compound?
**A.** Its T/C is 80 % of control.

**Q.** What about the T/C (dose: 0.1 mg/kg/injection, schedule: Q01DX011 (ip), vehicle: carboxymethylcellulose (CMC)) of the same compound?
**A.** The T/C was 36 % of control.

**Q.** What about the T/C (dose: 0.1 mg/kg/injection, schedule: Q02DX011 (ip), vehicle: carboxymethylcellulose (CMC)) of the same compound?
**A.** Its T/C is 65 % of control.

**Q.** And the T/C (dose: 0.2 mg/kg/injection, schedule: Q02DX011 (ip), vehicle: carboxymethylcellulose (CMC))?
**A.** The T/C was 49 % of control.

**Q.** What about the T/C (dose: 0.5 mg/kg/injection, schedule: Q01DX011 (ip), vehicle: saline) of the same compound?
**A.** Its T/C is 8 % of control.

**Q.** What about the T/C (dose: 49.0 micrograms/kg/injection, schedule: Q01DX011 (ip), vehicle: carboxymethylcellulose (CMC)) of the same compound?
**A.** The T/C was 86 % of control.

**Q.** What about the T/C (dose: 67.0 micrograms/kg/injection, schedule: Q01DX011 (ip), vehicle: carboxymethylcellulose (CMC)) of the same compound?
**A.** The T/C was 213 % of control.

**Q.** What about the T/C (dose: 98.0 micrograms/kg/injection, schedule: Q01DX011 (ip), vehicle: carboxymethylcellulose (CMC)) of the same compound?
**A.** The T/C was 88 % of control.

**Q.** What about the T/C (dose: 134.0 micrograms/kg/injection, schedule: Q01DX011 (ip), vehicle: carboxymethylcellulose (CMC)) of the same compound?
**A.** The T/C was 101 % of control.

**Q.** What about the T/C (dose: 150.0 micrograms/kg/injection, schedule: Q01DX011 (ip), vehicle: saline) of the same compound?
**A.** Its T/C is 63 % of control.

**Q.** And the T/C (dose: 260.0 micrograms/kg/injection, schedule: Q01DX011 (ip), vehicle: carboxymethylcellulose (CMC))?
**A.** Its T/C is 57 % of control and 77 % of control.

**Q.** What about the T/C (dose: 268.0 micrograms/kg/injection, schedule: Q01DX011 (ip), vehicle: carboxymethylcellulose (CMC)) of the same compound?
**A.** Its T/C is 82 % of control.

**Q.** And the T/C (dose: 300.0 micrograms/kg/injection, schedule: Q01DX011 (ip), vehicle: saline)?
**A.** Its T/C is 33 % of control.

**Q.** And the T/C (dose: 536.0 micrograms/kg/injection, schedule: Q01DX011 (ip), vehicle: carboxymethylcellulose (CMC))?
**A.** The T/C was 18 % of control.

**Q.** And the T/C (dose: 600.0 micrograms/kg/injection, schedule: Q01DX011 (ip), vehicle: saline)?
**A.** Its T/C is 7 % of control.

**Q.** OB(O)O was tested. Which T/C (dose: 500.0 mg/kg/injection, schedule: Q#A X022 (oral), vehicle: water) did it give?
**A.** Its T/C is 39 % of control and 45 % of control.

**Q.** And the T/C (dose: 750.0 mg/kg/injection, schedule: Q#A X022 (oral), vehicle: water)?
**A.** The T/C was 16 % of control.

**Q.** What about the T/C (dose: 1000.0 mg/kg/injection, schedule: Q#A X022 (oral), vehicle: water) of the same compound?
**A.** Its T/C is 9 % of control.

**Q.** CCCCn1cnc2c(=S)nc(N)[nH]c21 was tested. Which T/C (dose: 0.6 mg/kg/injection, schedule: Q01DX011 (ip), vehicle: carboxymethylcellulose (CMC)) did it give?
**A.** The T/C was 57 % of control.

**Q.** And the T/C (dose: 1.2 mg/kg/injection, schedule: Q01DX011 (ip), vehicle: carboxymethylcellulose (CMC))?
**A.** The T/C was 35 % of control.

**Q.** What about the T/C (dose: 1.2 mg/kg/injection, schedule: Q01DX011 (ip), vehicle: olive oil, sesame oil, peanut oil) of the same compound?
**A.** Its T/C is 60 % of control.

**Q.** What about the T/C (dose: 2.5 mg/kg/injection, schedule: Q01DX011 (ip), vehicle: carboxymethylcellulose (CMC)) of the same compound?
**A.** The T/C was 2 % of control.

**Q.** And the T/C (dose: 2.5 mg/kg/injection, schedule: Q01DX011 (ip), vehicle: olive oil, sesame oil, peanut oil)?
**A.** The T/C was 33 % of control.

**Q.** CC(C)Cn1cnc2c(SCCCc3ccccc3)nc(N)nc21 was tested. Which T/C [1] did it give?
**A.** The T/C was 72 % of control.

**Q.** What about the T/C [2] of the same compound?
**A.** The T/C was 39 % of control.

**Q.** And the T/C [3]?
**A.** Its T/C is 10 % of control.

**Q.** And the T/C (dose: 200.0 mg/kg/injection, schedule: Q01DX011 (ip), vehicle: methylcellulose (MC))?
**A.** The T/C was 8 % of control.

**Q.** What does the source list for O=C1NC(=O)c2cc([N+](=O)[O-])cc3cccc1c23?
**A.** T/C (dose: 85.0 mg/kg/injection, schedule: Q01DX011 (ip), vehicle: methylcellulose (MC)): 104 % of control; T/C (dose: 680.0 mg/kg/injection, schedule: Q01DX011 (ip), vehicle: methylcellulose (MC)): 89 % of control

**Q.** For CC(C)=NOC(N)=O, which T/C (dose: 100.0 mg/kg/injection, schedule: Q01DX011 (ip), vehicle: water) is on record?
**A.** Its T/C is 122 % of control.

**Q.** What about the T/C (dose: 200.0 mg/kg/injection, schedule: Q01DX011 (ip), vehicle: water) of the same compound?
**A.** Its T/C is 106 % of control.

**Q.** How did the T/C (dose: 1.0 mg/kg/injection, schedule: Q01DX011 (ip), vehicle: methylcellulose (MC)) turn out when COc1ccc2c(c1)/C(=C/CCN(C)C)c1ccccc1S2 was run?
**A.** Its T/C is 87 % of control.

**Q.** And the T/C [4]?
**A.** Its T/C is 87 % of control.

**Q.** And the T/C (dose: 3.0 mg/kg/injection, schedule: Q01DX011 (ip), vehicle: methylcellulose (MC))?
**A.** The T/C was 27 % of control.

**Q.** And the T/C (dose: 4.0 mg/kg/injection, schedule: Q01DX011 (ip), vehicle: carboxymethylcellulose (CMC))?
**A.** The T/C was 93 % of control.

**Q.** And the T/C [5]?
**A.** The T/C was 29 % of control.

**Q.** What about the T/C (dose: 7.0 mg/kg/injection, schedule: Q01DX011 (ip), vehicle: methylcellulose (MC)) of the same compound?
**A.** The T/C was 42 % of control.

**Q.** What about the T/C (dose: 15.0 mg/kg/injection, schedule: Q01DX011 (ip), vehicle: carboxymethylcellulose (CMC)) of the same compound?
**A.** The T/C was 67 % of control.

**Q.** And the T/C [6]?
**A.** Its T/C is 39 % of control.

**Q.** What about the T/C [7] of the same compound?
**A.** The T/C was 47 % of control.

**Q.** What does the source list for C[C@]12CCC(=O)C=C1CC[C@@H]1[C@@H]2[C@@H](O)C[C@]2(C)C(=O)CC[C@@H]12?
**A.** T/C (dose: 100.0 mg/kg/injection, schedule: Q01DX011 (sc), vehicle: steriod suspending solution): 107 % of control; T/C (dose: 200.0 mg/kg/injection, schedule: Q01DX011 (sc), vehicle: steriod suspending solution): 83 % of control

**Q.** Which results are given for CC(C)CSc1nc(N)nc2nc[nH]c12?
**A.** T/C [4]: 46 % of control; T/C (dose: 4.0 mg/kg/injection, schedule: Q01DX011 (ip), vehicle: methylcellulose (MC)): 30 % of control; T/C (dose: 8.0 mg/kg/injection, schedule: Q01DX011 (ip), vehicle: methylcellulose (MC)): 10 % of control; T/C (dose: 16.0 mg/kg/injection, schedule: Q01DX011 (ip), vehicle: methylcellulose (MC)): 6 % of control; T/C (dose: 32.0 mg/kg/injection, schedule: Q01DX011 (ip), vehicle: methylcellulose (MC)): 5 % of control; T/C (dose: 64.0 mg/kg/injection, schedule: Q01DX011 (ip), vehicle: methylcellulose (MC)): 4 % of control

**Q.** What does the source list for CSc1nc(Cl)c2cc[nH]c2n1?
**A.** T/C [7]: 89 % of control; T/C (dose: 120.0 mg/kg/injection, schedule: Q01DX011 (ip), vehicle: carboxymethylcellulose (CMC)): 72 % of control; T/C (dose: 240.0 mg/kg/injection, schedule: Q01DX011 (ip), vehicle: carboxymethylcellulose (CMC)): 79 % of control

**Q.** Which results are given for O=C1NC(=O)C(c2ccccc2)(c2ccc(Cl)cc2Cl)N1 (stereo not drawn)?
**A.** T/C (dose: 28.0 mg/kg/injection, schedule: Q01DX011 (ip), vehicle: carboxymethylcellulose (CMC)): 54 % of control; T/C [8]: 65 % of control; T/C [9]: 79 % of control; T/C (dose: 56.0 mg/kg/injection, schedule: Q01DX011 (ip), vehicle: saline): 89 % of control; T/C (dose: 112.0 mg/kg/injection, schedule: Q01DX011 (ip), vehicle: carboxymethylcellulose (CMC)): 62 % of control; T/C (dose: 112.0 mg/kg/injection, schedule: Q01DX011 (ip), vehicle: saline): 64 % of control; T/C (dose: 224.0 mg/kg/injection, schedule: Q01DX011 (ip), vehicle: saline): 24 % of control

**Q.** For CCCCn1cnc2c(SCc3ccc(Br)cc3)nc(N)nc21, which T/C (dose: 12.5 mg/kg/injection, schedule: Q01DX011 (ip), vehicle: methylcellulose (MC)) is on record?
**A.** Its T/C is 47 % of control.

**Q.** What about the T/C [1] of the same compound?
**A.** The T/C was 66 % of control.

**Q.** And the T/C [2]?
**A.** Its T/C is 82 % of control.

**Q.** And the T/C [3]?
**A.** The T/C was 49 % of control.

**Q.** Which results are given for O=C(Nc1ccc(C2=NC3CCCCC3N2)cc1)c1cccc(C(=O)Nc2ccc(C3=NC4CCCCC4N3)cc2)c1 (stereo not drawn)?
**A.** T/C [6]: 73 % of control; T/C [10]: 81 % of control; T/C (dose: 60.0 mg/kg/injection, schedule: Q01DX011 (ip), vehicle: methylcellulose (MC)): 73 % of control; T/C (dose: 120.0 mg/kg/injection, schedule: Q01DX011 (ip), vehicle: methylcellulose (MC)): 59 % of control

**Q.** For CC1CN1C(=O)c1cc(C(=O)N2CC2C)cc(C(=O)N2CC2C)c1 (stereo not drawn), which T/C [6] is on record?
**A.** Its T/C is 69 % of control.

**Q.** What about the T/C [10] of the same compound?
**A.** Its T/C is 57 % of control and 64 % of control.

**Q.** Which results are given for CC(C)OC(=O)C1(N)CCCC1?
**A.** T/C (dose: 3.5 mg/kg/injection, schedule: Q01DX011 (ip), vehicle: carboxymethylcellulose (CMC)): 43 % of control; T/C [5]: 55 % of control; T/C (dose: 7.0 mg/kg/injection, schedule: Q01DX011 (ip), vehicle: saline): 95 % of control; T/C (dose: 14.0 mg/kg/injection, schedule: Q01DX011 (ip), vehicle: carboxymethylcellulose (CMC)): 55 % of control; T/C (dose: 14.0 mg/kg/injection, schedule: Q01DX011 (ip), vehicle: saline): 96 % of control; T/C [8]: 34 % of control and 58 % of control; T/C [9]: 42 % of control; T/C (dose: 113.0 mg/kg/injection, schedule: Q01DX011 (ip), vehicle: saline): 6 % of control; T/C (dose: 120.0 mg/kg/injection, schedule: Q01DX011 (ip), vehicle: other): 10 % of control
